Reference: patent US20260158149A1, “GLYCOSYLATED PRODRUGS” (UNIVERSITEIT LEIDEN, priority 2021, published 2026)
“Also recorded” adds a separate entry of the source. Read-outs that look alike come from different tables or passages of the source.

Assays:
[1] = Whole-body cortisol measurement using ELISA; conditions: 5 dpf larvae treated from 2 hpf, non-wounded
Procedure: (§3) Zebrafish embryos at 2 hpf received a chemical treatment, as indicated, with daily refreshment of the solutions, until 96 hpf. Then, the treatments were stopped and embryos were incubated in egg water until 5 dpf to avoid cross-reactivity with the compounds of the cortisol antibody used in the ELISA. Then, the treatments were stopped and replaced with egg water. At 5 dpf, the larvae were collected in an Eppendorf tube and 100 μL of ice-cold phosphate-buffered saline (PBS) was added. The larvae were homogenized using a BulletBlender® for 3 min at 8,000 rpm. Ethyl acetate was added to the homogenate and the supernatant was gathered and vaporized. A volume of 150 μl of 0.2% Bovine serum albumin (Sigma Aldrich) dissolved in phosphate-buffered saline (PBS) was added to the samples and frozen. Whole-body cortisol of the zebrafish larvae was determined by ELISA (Demeditec Diagnostics GmbH, Kiel-Wellsee, Germany), following the manufacturer's instructions. In each experiment, three biological replicates were used for each treatment group, and the colorimetric assay was performed using technical duplicates.

[2] = system: neutrophils migrated to the wounded area; assay: Tail fin amputation assay: neutrophil migration to the wounded area; assay type: in vivo, Zebrafish (Danio rerio); conditions: for inhibition of neutrophil migration in Gr deficient larvae: gr mutant line (gr-/-); for migration of neutrophils towards the wounded area: wild type larvae, 4 h after tail wounding; for reduction in neutrophil migration in the presence of MZ31: GBA2 inhibitor MZ31
Procedure: Zebrafish (Danio rerio) were maintained and handled according to the guidelines from the Zebrafish Model Organism Database (https://zfin.org/) and in compliance with the directives of the local animal welfare committee of Leiden University. To maintain circadian rhythmicity, adult fish were exposed to a 14 h light and 10 h dark cycle. Fertilization was performed by natural spawning at the beginning of the light period. Fertilized eggs were collected and raised at 28° C. in egg water (60 μg/ml Instant Ocean sea salts and 0.0025% methylene blue). The following zebrafish lines were used in this study: AB/TL wild type, the transgenic lines Tg(mpx:GFP^i114/mpeg1:mCherry^umsF001) (Bernut et al., (2014). Mycobacterium abscessus cording prevents phagocytosis and promotes abscess formation. Proc Natl Acad Sci USA 111, E943-952; Renshaw et al., (2006). A transgenic zebrafish model of neutrophilic inflammation. Blood 108, 3976-3978), and Tg(9xGCRE-HSV.UI123:EGFP)^ia20 (Benato et al., (2014). A living biosensor model to dynamically trace glucocorticoid transcriptional activity during development and adult life in zebrafish. Mol Cell Endocrinol 392, 60-72), and the mutant lines gba2^−/− (Lelieveld et al., (2019). Role of beta-glucosidase 2 in aberrant glycosphingolipid metabolism: model of glucocerebrosidase deficiency in zebrafish. J Lipid Res 60, 1851-1867) and gr^s357 (Ziv et al., (2013). An affective disorder in zebrafish with mutation of the glucocorticoid receptor. Mol Psychiatry 18, 681-691).
(§1) For the tail fin amputation experiments, 3 days post fertilization (dpf) larvae from the Tg(mpx:GFP^i114/mpeg1:mCherry^umsF001) line were anesthetized in 0.02% buffered aminobenzoic acid ethyl ester (tricaine) in egg water and placed on a 2% agarose-coated petri dish. The tails were partially amputated with a 1 mm sapphire blade (World Precision Instruments) under a Leica M165C stereomicroscope (Leica Microsystems, Wetzlar, Germany). Chemical treatment (or 0.1% DMSO as vehicle treatment) was started at 2 h before the amputation (pretreatment) and was continued for 4 h after the tail fin amputation (20 larvae per group, unless indicated otherwise), at which time point the larvae were fixed in 4% paraformaldehyde (PFA) overnight at 4° C. and stored at 4° C. until further examination. In some experiments, a 24 h treatment with miglustat, ME656 or MZ31 was started at 2 dpf, and these treatments were continued during the pretreatment and treatment with the other chemicals. For imaging of larvae from the Tg(mpx:GFP^i114/mpeg1:mCherry^umsF001) line, a LeicaMZ16FA fluorescence stereomicroscope with LAS 3.7 software was used. Neutrophils were detected by GFP fluorescence and macrophages by mCherry fluorescence. The neutrophil numbers were determined by blinded manual counting in a pre-determined area. When larvae from gba2^−/− or gr^s357mutant lines were used, neutrophil labeling was performed with the TSA fluorescein detection kit (PerkinElmer) for specific staining of Myeloperoxidase (Mpx)-positive cells, following the manufacturer's instructions.

[3] = system: il1b, il6, mmp9, mmp13, il8 mRNA; assay: qPCR of pro-inflammatory genes after tail wounding; assay type: in vivo, Zebrafish (Danio rerio)
Text: as §1
(§2) For experiments in zebrafish, gene expression was measured using 3 dpf embryos. Groups of 15 larvae were collected in TRIzol reagent (Invitrogen) and mRNA was isolated using the miRNeasy mini kit (Qiagen), according to the manufacturer's instructions. For experiments in HeLa cells, samples were collected from a single well from 6 well plates (80% confluent) in TRIzol reagent and mRNA was isolated using the RNeasy mini kit. Zebrafish and cells samples were treated with DNAse utilizing the DNA-Free™ kit (Ambion). The cDNA synthesis was performed using iScript cDNA synthesis kit (Bio-Rad) using 1 μg of RNA per sample. For qPCR, 10 μM of forward and 10 μM of reverse primer, 12.5 μL of iQ SYBR Green Supermix (Bio-Rad), and 2 μL of cDNA were added to the qPCR reaction mixture. […] The qPCR reactions were performed on a MyiQ-single-color real-time PCR detection system (Bio-Rad) with initial denaturation for 3 min at 95° C. and 40 cycles of 15 s at 95.5° C., 15 s at 60° C., and 30 s at 72° C. Cycle threshold values (Ct values, i.e. the cycle numbers at which a threshold value of the fluorescence intensity was reached) were determined for each sample. The gene expression level for each sample was normalized using the expression of ppial (peptidylprolyl isomerase Ab (cyclophilin A)) for zebrafish samples, and 18S rRNA for human cells. The fold change per sample (compared to the respective control group) was calculated using the ΔΔCt method.

regenerated tail fin = assay: Regeneration of the tail fin after wounding; assay type: in vivo, Zebrafish (Danio rerio); conditions: 5 dpf larvae, wounded at 2 dpf
Procedure: When the regeneration of the tail fins after wounding or the larval body length was used as a readout, chemical treatments of the embryos were started at 2 hours post fertilization (hpf) and continued until 5 dpf. During this period, solutions were refreshed daily. At 5 dpf, larvae were imaged using a LeicaMZ16FA fluorescence stereomicroscope supported by LAS 3.7 software, and the length of the larvae was measured using ImageJ software (15 larvae per treatment group). For the regeneration experiments, tail fins were amputated at 2 dpf and larvae were imaged at 5 dpf (15 larvae per treatment group). The newly grown tissue can be distinguished from the old tissue, enabling precise measurement of the size of the newly grown tissue using ImageJ software.

[4] = system: macrophages migrated to the wounded area; assay: Tail fin amputation assay: macrophage migration; assay type: in vivo, Zebrafish (Danio rerio); conditions: wild type larvae, 4 h after wounding
Procedure: Zebrafish (Danio rerio) were maintained and handled according to the guidelines from the Zebrafish Model Organism Database (https://zfin.org/) and in compliance with the directives of the local animal welfare committee of Leiden University. To maintain circadian rhythmicity, adult fish were exposed to a 14 h light and 10 h dark cycle. Fertilization was performed by natural spawning at the beginning of the light period. Fertilized eggs were collected and raised at 28° C. in egg water (60 μg/ml Instant Ocean sea salts and 0.0025% methylene blue). […]
For the tail fin amputation experiments, 3 days post fertilization (dpf) larvae from the Tg(mpx:GFP^i114/mpeg1:mCherry^umsF001) line were anesthetized in 0.02% buffered aminobenzoic acid ethyl ester (tricaine) in egg water and placed on a 2% agarose-coated petri dish. […] For imaging of larvae from the Tg(mpx:GFP^i114/mpeg1:mCherry^umsF001) line, a LeicaMZ16FA fluorescence stereomicroscope with LAS 3.7 software was used. Neutrophils were detected by GFP fluorescence and macrophages by mCherry fluorescence. The neutrophil numbers were determined by blinded manual counting in a pre-determined area. […]

[5] = Whole-body glucose measurement in larvae; conditions: 5 dpf larvae treated from 2 hpf, non-wounded
Procedure: (§4) Zebrafish embryos at 2 hpf received a chemical treatment, as indicated, with daily refreshment of the solutions, until 5 dpf. At 5 dpf, the larvae were collected in an Eppendorf tube and 100 μL of ice-cold glucose buffer was added to each sample. The larvae were homogenized using a BulletBlender® for 3 min at 8,000 rpm. The homogenates were then centrifuged at 4° C. for 8 min at 11000 rpm and the supernatant was stored at −20° C. Whole-body glucose concentrations were determined using a Glucose Colorimetric Assay kit (Cayman Chemical, USA), according to the manufacturer's instructions. In each experiment, three biological replicates were used for each treatment group, and the colorimetric assay was performed using technical duplicates.

Gr = assay: Transactivation activity of Gr in Tg(9xGCRE-HSV.UI23:EGFP) reporter line; assay type: in vivo, Zebrafish (Danio rerio); conditions: 24 h treatment, 3 dpf larvae
Procedure: The Tg(9xGCRE-HSV.UI23:EGFP)^ia20 zebrafish reporter line expresses enhanced green fluorescent protein (EGFP) under the control of a promoter containing an array of nine GREs. To study the effect of chemical treatments on the transactivation activity of the Gr, 15 zebrafish embryos per group (2 dpf) were treated with the indicated compounds for 24 hours. The transactivation activity of Gr induced by the treatments was assessed using a LeicaMZ16FA fluorescence stereomicroscope supported by LAS 3.7 software. The integrated intensity of the EGFP signal in the larvae was determined using ImageJ software.

[6] = system: Gr target genes fkbp5, pck1 and nfkbiaa; assay: qPCR of Gr target genes fkbp5, pck1, nfkbiaa; assay type: in vivo, Zebrafish (Danio rerio)
Procedure: as §2

[7] = zebrafish, in vivo
Procedure: as §3

human GR = molecular target: T1, human GR (Homo sapiens, UniProt P04150); assay: PolarScreen Glucocorticoid Receptor Competitor Assay; conditions: glucosylation or gentiobiosylation of Pdn
T1 sequence (P04150 1-777): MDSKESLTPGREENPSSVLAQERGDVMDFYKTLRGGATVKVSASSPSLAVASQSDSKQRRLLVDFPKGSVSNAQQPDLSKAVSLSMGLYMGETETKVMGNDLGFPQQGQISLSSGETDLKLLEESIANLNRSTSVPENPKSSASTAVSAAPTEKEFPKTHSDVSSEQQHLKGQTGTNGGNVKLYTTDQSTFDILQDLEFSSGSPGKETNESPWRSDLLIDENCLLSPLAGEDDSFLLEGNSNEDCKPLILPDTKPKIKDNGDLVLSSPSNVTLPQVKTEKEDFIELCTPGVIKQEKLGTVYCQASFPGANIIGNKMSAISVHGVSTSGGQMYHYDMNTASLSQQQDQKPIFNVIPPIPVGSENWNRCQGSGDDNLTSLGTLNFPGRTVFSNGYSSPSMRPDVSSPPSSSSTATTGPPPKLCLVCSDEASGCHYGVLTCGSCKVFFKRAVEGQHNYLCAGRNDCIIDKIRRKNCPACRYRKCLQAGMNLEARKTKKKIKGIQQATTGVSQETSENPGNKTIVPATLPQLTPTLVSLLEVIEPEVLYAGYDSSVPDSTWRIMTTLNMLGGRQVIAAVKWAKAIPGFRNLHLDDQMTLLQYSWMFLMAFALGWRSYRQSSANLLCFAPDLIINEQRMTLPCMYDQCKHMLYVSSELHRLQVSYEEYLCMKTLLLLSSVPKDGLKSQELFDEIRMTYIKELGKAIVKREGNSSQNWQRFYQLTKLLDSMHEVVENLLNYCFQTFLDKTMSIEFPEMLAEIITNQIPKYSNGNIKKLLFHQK

[8] = zebrafish, in vivo; remark: listed apart in the source
Procedure: as §4

| tissue regeneration (length of regenerated tail fin) (regenerated tail fin) | whole body glucose level [5] | whole body cortisol level under wounding conditions with MZ31 [7] | decrease in the binding affinity relative to Pdn (human GR) | whole body glucose level [8] | whole body glucose level under wounding conditions with MZ31 [8] | Compound | whole body cortisol level [1] | inhibition of neutrophil migration in Gr deficient larvae [2] | migration of neutrophils towards the wounded area [2] | wounding-induced increase in expression of il1b, il6 and mmp9 [3] | migration of macrophages [4] | transactivation activity of Gr (GFP signal in GRE:GFP reporter fish line) (Gr) | reduction in neutrophil migration in the presence of MZ31 [2] | wounding-induced increase in expression of il1b, il6, mmp9 and mmp13 [3] | expression of Gr target genes fkbp5, pck1 and nfkbiaa [6] | whole body cortisol level [7] | expression of the pro-inflammatory genes il1b, il6 and il8 [3] |
| --- | --- | --- | --- | --- | --- | --- | --- | --- | --- | --- | --- | --- | --- | --- | --- | --- | --- |
| decrease | increased the glucose concentration |  |  |  |  | C[C@H]1C[C@H]2[C@@H]3CCC4=CC(=O)C=C[C@]4(C)[C@@]3(Cl)[C@@H](O)C[C@]2(C)[C@@]1(O)C(=O)CO [Bec, beclomethasone] | decrease in cortisol level; also recorded: decreased the cortisol level; also recorded: significantly larger decrease | absent | decreases the migration of neutrophils; also recorded: inhibits neutrophil migration; also recorded: inhibited the neutrophil migration | strongly suppressed | leaves the migration of macrophages unaffected | large increase in GFP signal |  |  |  |  |  |
|  | did not increase the glucose level |  |  |  |  | C[C@@H]1C[C@H]2[C@@H]3CCC4=CC(=O)C=C[C@]4(C)[C@@]3(F)[C@@H](O)C[C@]2(C)[C@@]1(O)C(=O)CO[C@@H]1O[C@H](C(=O)O)[C@@H](O)[C@H](O)[C@H]1O [GDex, dexamethasone-glucuronide] | very minor decrease in cortisol level; also recorded: only slightly reduced the cortisol concentrations | absent | inhibits neutrophil migration; also recorded: inhibited the neutrophil migration |  | without any effect on macrophage migration | did not induce the transactivation activity of the Gr | independent of GBA2 activity | strongly reduced | did not induce the transactivation activity of the Gr |  |  |
|  |  | reduced upon treatment with MZ31 | ~30 fold | did not increase the glucose level | reduced upon treatment with MZ31 | C[C@]12C=CC(=O)C=C1CC[C@@H]1[C@@H]2[C@@H](O)C[C@@]2(C)[C@H]1CC[C@]2(O)C(=O)CO[C@@H]1O[C@H](CO)[C@@H](O)[C@H](O)[C@H]1O [GPdn, 21-O-Glucose-Prednisolone] |  |  | inhibited the neutrophil migration |  |  | neither GPdn nor GbPdn induced the transactivation activity of the Gr | independent of GBA2 activity |  | lack of effect | only slightly reduced the cortisol concentrations | these effects were similar to those observed upon Pdn and GPdn treatment |
